inhibition, CLint scaled and Activity data for 1 compound are collected here from ChEMBL document CHEMBL5625183, “Discovery of a novel dual-target inhibitor of CDK12 and PARP1 that induces synthetic lethality for treatment of triple-negative breast cancer” (Eur J Med Chem, 2023).

The target of data set [1] is Cyclin-dependent kinase 12 (Homo sapiens, UniProt Q9NYV4). Description: Inhibition of CDK12 (unknown origin) at 1 uM in presence of ATP by kinase-glo plus luminescent assay relative to control. Background: In Kinase-Glo more light means more ATP remaining.
The nature of data set [2]: Metabolic stability in human liver microsome assessed as intrinsic clearance in presence of NADPH incubated upto 60 mins by LC-MS/MS analysis. In kind it is ADME. To be noted: liver microsomes, read-out: CLH. (Liver microsomes are vesicles of endoplasmic reticulum, rich in cytochrome P450 enzymes.)
For data set [3], the target named is T1, Dual specificity tyrosine-phosphorylation-regulated kinase 2 (Homo sapiens) (UniProt Q92630).
T1 sequence (whole entry): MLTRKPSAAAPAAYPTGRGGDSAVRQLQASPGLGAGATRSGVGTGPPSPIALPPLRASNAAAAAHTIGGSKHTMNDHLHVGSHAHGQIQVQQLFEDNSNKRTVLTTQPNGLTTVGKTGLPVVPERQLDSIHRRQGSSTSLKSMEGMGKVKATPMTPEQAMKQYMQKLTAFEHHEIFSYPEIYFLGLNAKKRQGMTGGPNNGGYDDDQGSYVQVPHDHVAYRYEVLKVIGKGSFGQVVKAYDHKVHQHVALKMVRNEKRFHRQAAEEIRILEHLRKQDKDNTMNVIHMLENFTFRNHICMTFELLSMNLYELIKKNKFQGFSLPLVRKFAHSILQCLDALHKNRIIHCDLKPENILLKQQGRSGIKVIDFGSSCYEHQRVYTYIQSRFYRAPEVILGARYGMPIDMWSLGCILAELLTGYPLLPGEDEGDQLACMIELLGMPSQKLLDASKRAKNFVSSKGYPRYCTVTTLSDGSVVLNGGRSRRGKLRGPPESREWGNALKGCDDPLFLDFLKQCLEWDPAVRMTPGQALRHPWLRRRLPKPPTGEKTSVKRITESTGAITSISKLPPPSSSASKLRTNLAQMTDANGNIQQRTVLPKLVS
Description: Inhibition of DYRK2 (unknown origin) at 1 uM relative to control.

Data set [4] has as its system MDA-MB-231. As to the kind of experiment: Induction of cell cycle arrest in human MDA-MB-231 cells assessed as accumulation of cells at S phase at 10 uM measured after 24 hrs by PI staining based cytometry analysis (reference value: 23.01 %). In kind it is functional.
Data set [5] concerns MDA-MB-436. As to the kind of experiment: Induction of cell cycle arrest in human MDA-MB-436 cells assessed as accumulation of cells at S phase at 5 uM measured after 24 hrs by PI staining based cytometry analysis (reference value: 25.43%). In kind it is functional.
The subject of data set [6] is MDA-MB-436. Description: Induction of cell cycle arrest in human MDA-MB-436 cells assessed as accumulation of cells at S phase at 20 uM measured after 24 hrs by PI staining based cytometry analysis (reference value: 25.43%). In kind it is functional.
For data set [7], the system named is MDA-MB-468. Description: Antiproliferative activity against human MDA-MB-468 cells assessed as reduction in EDU-positive cells at 10 uM […]-staining based analysis. The data set is classed as functional, cell-based.

Molecules are shown by their SMILES. Active and inactive are the calls of the source. The rule behind the calls is not given here.

Sequence of Cyclin-dependent kinase 12 (Q9NYV4 whole entry, looked up): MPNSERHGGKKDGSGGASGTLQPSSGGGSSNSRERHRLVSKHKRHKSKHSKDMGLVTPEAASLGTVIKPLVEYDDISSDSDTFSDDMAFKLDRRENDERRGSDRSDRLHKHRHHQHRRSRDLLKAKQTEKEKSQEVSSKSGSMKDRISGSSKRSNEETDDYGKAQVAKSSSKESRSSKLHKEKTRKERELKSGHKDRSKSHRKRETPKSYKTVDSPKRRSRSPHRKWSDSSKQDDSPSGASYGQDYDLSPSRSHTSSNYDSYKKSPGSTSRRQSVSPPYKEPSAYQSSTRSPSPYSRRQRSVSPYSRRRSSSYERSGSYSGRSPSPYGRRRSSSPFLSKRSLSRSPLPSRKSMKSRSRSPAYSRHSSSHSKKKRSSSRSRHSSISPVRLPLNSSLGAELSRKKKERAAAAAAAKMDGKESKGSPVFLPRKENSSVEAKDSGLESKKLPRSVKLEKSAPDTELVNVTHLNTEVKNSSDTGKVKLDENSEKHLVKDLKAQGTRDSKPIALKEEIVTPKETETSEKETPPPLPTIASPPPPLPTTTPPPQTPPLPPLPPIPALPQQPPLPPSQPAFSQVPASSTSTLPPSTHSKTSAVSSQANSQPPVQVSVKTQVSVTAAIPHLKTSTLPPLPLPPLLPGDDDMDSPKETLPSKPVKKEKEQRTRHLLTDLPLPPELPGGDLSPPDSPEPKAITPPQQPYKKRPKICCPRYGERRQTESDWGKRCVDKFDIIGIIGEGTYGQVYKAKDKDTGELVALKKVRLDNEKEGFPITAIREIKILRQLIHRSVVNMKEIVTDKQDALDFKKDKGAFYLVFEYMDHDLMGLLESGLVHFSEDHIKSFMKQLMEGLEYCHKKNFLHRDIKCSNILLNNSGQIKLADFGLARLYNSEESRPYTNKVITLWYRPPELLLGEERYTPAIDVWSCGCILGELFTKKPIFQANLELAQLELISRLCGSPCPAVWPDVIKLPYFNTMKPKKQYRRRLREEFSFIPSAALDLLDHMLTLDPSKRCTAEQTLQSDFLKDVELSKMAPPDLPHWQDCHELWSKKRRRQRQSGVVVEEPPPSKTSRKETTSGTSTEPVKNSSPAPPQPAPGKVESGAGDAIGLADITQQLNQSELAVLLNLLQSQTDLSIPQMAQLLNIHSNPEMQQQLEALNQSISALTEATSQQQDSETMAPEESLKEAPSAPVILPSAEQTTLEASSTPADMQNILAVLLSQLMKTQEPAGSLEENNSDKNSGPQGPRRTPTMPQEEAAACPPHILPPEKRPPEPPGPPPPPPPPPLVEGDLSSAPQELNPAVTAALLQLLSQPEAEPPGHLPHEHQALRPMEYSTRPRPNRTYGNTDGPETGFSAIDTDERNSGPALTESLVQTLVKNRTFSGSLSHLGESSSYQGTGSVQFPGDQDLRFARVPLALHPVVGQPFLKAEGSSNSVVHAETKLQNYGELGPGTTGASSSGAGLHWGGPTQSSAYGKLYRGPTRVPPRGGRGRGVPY

On to `NC(=O)c1cccc2[nH]c(NC(=O)c3cccc(C(=O)N4CCC(Nc5ncc(I)cn5)CC4)c3)nc12`, for which the inhibition in data set [1] is 77.3%; in data set [3], over 60%. The CLint scaled in data set [2] was 7.61 mL/min/kg. The results for the Activity in data set [4], in data set [5] and in data set [6] were 17.93%, 26.5% and 21.2%, respectively. For the same compound, the outcome in data set [7] was Active.

One may read the inhibition as the relative decrease from the control value, in per cent.
